Results as given in US20230357269A1 (LES LABORATOIRES SERVIER, priority 2020, published 2023).

target: human recombinant LRRK2 protein (Homo sapiens (Human), UniProt Q5S007); assay: LRRK2 Kinase Activity Assay (ADP-Glo); type: biochemical; settings: LRRK2 wt; LRRKtide peptide and ATP substrates; 1h-incubation at 37° C.
Description: LRRK2 Kinase reactions were carried out in 384-well white polystyrene plates in a final volume of 6 μl using ADP-Glo™ Kinase Assay kit (Promega Corp.). Compound and substrates (LRRKtide peptide and ATP) in assay buffer were first dispensed in wells. Kinase reaction was then started by the addition of human recombinant LRRK2 protein. After 1h-incubation at 37° C., the enzymatic reaction was stopped by the addition of 6 μl of ADP-Glo Reagent-1 and an additional 40-minutes incubation at 23° C. (residual ATP depletion). A final 30-minutes incubation after 12 μL reagent-2 addition (ADP to ATP conversion and luciferin/luciferase reaction) was performed before luminescent signal acquisition (EnVision™ multimode plate reader-PerkinElmer, Inc.). Data from 10 individual concentrations of tested compounds (N=2) were fitted (XLfit™-ID Business Solutions Ltd) to deliver IC50s (compound concentration leading to 50% inhibition of reference enzymatic activity).
The compounds are dissolved to 5 mM in DMSO. When needed, solutions are sonicated in a bath sonicator.
Table 2 provides the IC50 values of the compounds according to the invention, obtained using the above-mentioned kinase assay. Activities are represented as +++, ++ and +, having the following meanings: • +++ means IC50<10 nM • ++ means 10 nM≤IC50<100 nM • + means 100 nM≤IC50<1 μM.

Chain of human recombinant LRRK2 protein (Q5S007 whole entry): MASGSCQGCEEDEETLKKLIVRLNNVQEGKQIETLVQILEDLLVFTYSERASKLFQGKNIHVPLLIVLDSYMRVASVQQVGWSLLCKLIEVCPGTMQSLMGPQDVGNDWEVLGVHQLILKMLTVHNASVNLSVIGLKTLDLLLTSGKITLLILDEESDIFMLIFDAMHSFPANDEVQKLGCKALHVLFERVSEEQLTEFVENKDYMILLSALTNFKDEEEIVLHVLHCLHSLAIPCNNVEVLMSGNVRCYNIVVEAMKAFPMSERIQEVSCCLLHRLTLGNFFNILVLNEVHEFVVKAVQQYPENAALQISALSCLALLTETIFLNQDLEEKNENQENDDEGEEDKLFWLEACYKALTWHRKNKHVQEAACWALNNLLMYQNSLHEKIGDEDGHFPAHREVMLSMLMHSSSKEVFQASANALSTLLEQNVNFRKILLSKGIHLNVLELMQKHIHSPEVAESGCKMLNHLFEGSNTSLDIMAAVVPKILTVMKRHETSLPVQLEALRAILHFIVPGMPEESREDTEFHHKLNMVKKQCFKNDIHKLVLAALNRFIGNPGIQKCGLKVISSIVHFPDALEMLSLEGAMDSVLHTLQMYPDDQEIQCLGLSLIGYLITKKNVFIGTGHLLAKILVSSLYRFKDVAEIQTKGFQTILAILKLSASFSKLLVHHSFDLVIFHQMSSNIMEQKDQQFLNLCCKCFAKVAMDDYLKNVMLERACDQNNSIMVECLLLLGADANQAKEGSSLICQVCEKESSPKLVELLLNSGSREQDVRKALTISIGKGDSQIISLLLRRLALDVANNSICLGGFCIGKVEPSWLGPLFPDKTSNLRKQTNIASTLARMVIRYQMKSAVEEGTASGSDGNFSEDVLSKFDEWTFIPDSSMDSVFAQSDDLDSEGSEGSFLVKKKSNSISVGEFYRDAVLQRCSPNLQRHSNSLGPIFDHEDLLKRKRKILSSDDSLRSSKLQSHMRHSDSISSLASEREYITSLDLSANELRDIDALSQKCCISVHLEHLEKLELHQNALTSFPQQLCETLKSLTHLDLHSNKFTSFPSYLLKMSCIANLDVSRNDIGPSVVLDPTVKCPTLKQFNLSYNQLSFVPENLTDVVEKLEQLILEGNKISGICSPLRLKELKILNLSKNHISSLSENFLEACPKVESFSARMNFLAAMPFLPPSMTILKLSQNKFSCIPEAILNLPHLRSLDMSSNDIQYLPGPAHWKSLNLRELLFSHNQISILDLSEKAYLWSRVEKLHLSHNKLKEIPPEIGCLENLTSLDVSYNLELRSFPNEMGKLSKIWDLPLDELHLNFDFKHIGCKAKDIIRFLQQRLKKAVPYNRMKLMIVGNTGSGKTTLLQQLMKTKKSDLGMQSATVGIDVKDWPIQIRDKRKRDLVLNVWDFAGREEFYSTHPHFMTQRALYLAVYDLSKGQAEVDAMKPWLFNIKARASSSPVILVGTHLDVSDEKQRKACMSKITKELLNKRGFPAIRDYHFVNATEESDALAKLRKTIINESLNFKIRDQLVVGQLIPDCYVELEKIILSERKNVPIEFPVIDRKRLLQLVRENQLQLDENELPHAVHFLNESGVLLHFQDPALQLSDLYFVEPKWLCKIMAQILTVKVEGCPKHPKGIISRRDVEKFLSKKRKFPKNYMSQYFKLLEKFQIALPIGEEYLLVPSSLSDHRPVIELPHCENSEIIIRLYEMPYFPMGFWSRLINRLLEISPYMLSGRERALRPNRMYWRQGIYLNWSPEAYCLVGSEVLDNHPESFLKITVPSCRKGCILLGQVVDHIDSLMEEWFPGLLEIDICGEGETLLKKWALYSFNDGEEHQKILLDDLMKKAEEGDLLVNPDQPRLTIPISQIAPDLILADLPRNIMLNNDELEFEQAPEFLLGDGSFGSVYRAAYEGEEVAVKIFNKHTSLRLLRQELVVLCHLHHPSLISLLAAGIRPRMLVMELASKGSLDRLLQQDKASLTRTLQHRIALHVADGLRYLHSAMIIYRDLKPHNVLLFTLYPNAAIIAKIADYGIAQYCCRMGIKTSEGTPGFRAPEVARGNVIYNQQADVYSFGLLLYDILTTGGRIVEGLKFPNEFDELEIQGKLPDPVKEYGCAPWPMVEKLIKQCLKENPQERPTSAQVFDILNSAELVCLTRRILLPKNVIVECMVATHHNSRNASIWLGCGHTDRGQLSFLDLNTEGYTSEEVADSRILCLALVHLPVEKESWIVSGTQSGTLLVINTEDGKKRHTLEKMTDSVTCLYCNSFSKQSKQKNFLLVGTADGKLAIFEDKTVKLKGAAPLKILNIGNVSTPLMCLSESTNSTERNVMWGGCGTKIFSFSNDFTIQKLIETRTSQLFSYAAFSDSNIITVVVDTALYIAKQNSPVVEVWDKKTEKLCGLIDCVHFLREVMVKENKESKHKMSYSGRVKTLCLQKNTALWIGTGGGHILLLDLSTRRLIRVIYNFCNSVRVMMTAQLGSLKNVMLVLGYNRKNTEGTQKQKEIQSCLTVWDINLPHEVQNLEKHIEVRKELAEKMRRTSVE

Structure (SMILES)	IC50 [nM]
COCCC1CCN(c2cc3cc(c2)-c2n[nH]c4ccc(cc24)OCCCNC(=O)OC3)CC1 [Example 23, 4-[4-(2-methoxyethyl)piperidin-1-yl]-8,14-dioxa-10,19,20-triazatetracyclo[13.5.2.1^2,6.0^18,21]tricosa-1(20),2,4,6(23),15,17,21-heptaen-9-one]	< 10
O=C1NCCOc2ccc3[nH]nc(c3c2)-c2cccc(c2)CCO1 [Example 24, 9,14-dioxa-11,19,20-triazatetracyclo[13.5.2.1^2,6.0^18,21]tricosa-1(20),2,4, 6(23),15,17,21-heptaen-10-one]	10 to 100
O=C1NCCCOc2ccc3[nH]nc(c3c2)-c2cc(cc(N3CC[C@@H](O)C3)c2)CO1 [Example 25, 4-[(3R)-3-hydroxypyrrolidin-1-yl]-8,14-dioxa-10,19,20-triazatetracyclo[13.5.2.1^2,6.0^18,21]tricosa-1(20),2,4,6(23),15,17,21-heptaen-9-one]	< 10
COCCN(C)c1cc2cc(c1)-c1n[nH]c3ccc(cc13)OCCCNC(=O)OC2 [Example 26, 4-[(2-methoxyethyl)(methyl)amino]-8,14-dioxa-10,19,20-triazatetracyclo[13.5.2.1^2,6.0^18,21]tricosa-1(20),2,4,6(23),15,17,21-heptaen-9-one]	< 10
O=C1NCCCOc2ccc3[nH]nc(c3c2)-c2cc(Cl)cc(c2)CO1 [Example 27, 4-chloro-8,14-dioxa-10,19,20-triazatetracyclo[13.5.2.1^2,6.0^18,21]tricosa-1(20), 2,4,6(23),15,17,21-heptaen-9-one]	< 10
Cc1c(F)cc2cc1COC(=O)NCCCOc1ccc3[nH]nc-2c3c1 [Example 28, 4-fluoro-5-methyl-8,14-dioxa-10,19,20-triazatetracyclo[13.5.2.1^2,6.0^18,21]tricosa-1(20),2,4,6(23),15,17,21-heptaen-9-one]	< 10
O=C1NCCCOc2ccc3[nH]nc(c3c2)-c2cc(F)c(F)c(c2)CO1 [Example 29, 4,5-difluoro-8,14-dioxa-10,19,20-triazatetracyclo[13.5.2.1^2,6.0^18,21]tricosa-1(20),2,4,6(23),15,17,21-heptaen-9-one]	< 10
CN1CCN(c2cc3cc(c2)-c2n[nH]c4ccc(cc24)OCCCNC(=O)OC3)CC1 [Example 31, 4-(4-methylpiperazin-1-yl)-8,14-dioxa-10,19,20-triazatetracyclo[13.5.2.1^2,6.0^18,21]tricosa-1(20),2,4,6(23),15,17,21-heptaen-9-one]	< 10
COC1CN(c2cc3cc(c2)-c2n[nH]c4ccc(cc24)OCCCNC(=O)OC3)C1 [Example 32, 4-(3-methoxyazetidin-1-yl)-8,14-dioxa-10,19,20-triazatetracyclo[13.5.2.1^2,6.0^18,21]tricosa-1(20),2,4,6(23),15,17,21-heptaen-9-one]	< 10
N#CC1CCN(c2cc3cc(c2)-c2n[nH]c4ccc(cc24)OCCCNC(=O)OC3)CC1 [Example 33, 1-{9-oxo-8,14-dioxa-10,19,20-triazatetracyclo[13.5.2.1^2,6.0^18,21]tricosa-1(20),2,4,6(23),15,17,21-heptaen-4-yl}piperidine-4-carbonitrile]	< 10
O=C1NCCCOc2ccc3[nH]nc(c3c2)-c2cc(cc(N3CCC(N4CCCC4)CC3)c2)CO1 [Example 34, 4-[4-(pyrrolidin-1-yl)piperidin-1-yl]-8,14-dioxa-10,19,20-triazatetracyclo[13.5.2.1^2,6.0^18,21]tricosa-1(20),2,4,6(23),15,17,21-heptaen-9-one]	< 10
O=C1NCCCOc2ccc3[nH]nc(c3c2)-c2cc(cc(N3CCC3)c2)CO1 [Example 35, 4-(azetidin-1-yl)-8,14-dioxa-10,19,20-triazatetracyclo[13.5.2.1^2,6.0^18,21]tricosa-1(20),2,4,6(23),15,17,21-heptaen-9-one]	< 10
O=C1NCCCOc2ccc3[nH]nc(c3c2)-c2cc(cc(N3CCCCC3)c2)CO1 [Example 36, 4-(piperidin-1-yl)-8,14-dioxa-10,19,20-triazatetracyclo[13.5.2.1^2,6.0^18,21]tricosa-1(20),2,4,6(23),15,17,21-heptaen-9-one]	< 10
O=C1NCCCOc2ccc3[nH]nc(c3c2)-c2cc(cc(C3=CCOC3)c2)CO1 [Example 37, 4-(2,5-dihydrofuran-3-yl)-8,14-dioxa-10,19,20-triazatetracyclo[13.5.2.1^2,6.0^18,21]tricosa-1(20),2,4,6(23),15,17,21-heptaen-9-one]	< 10
O=C1NCCCOc2ccc3[nH]nc(c3c2)-c2cc(cc(N3CCC(N4CCOCC4)CC3)c2)CO1 [Example 38, 4-[4-(morpholin-4-yl)piperidin-1-yl]-8,14-dioxa-10,19,20-triazatetracyclo[13.5.2.1^2,6.0^18,21]tricosa-1(20),2,4,6(23),15,17,21-heptaen-9-one]	< 10
CN1CC=C(c2cc3cc(c2)-c2n[nH]c4ccc(cc24)OCCCNC(=O)OC3)CC1 [Example 39, 4-(1-methyl-1,2,3,6-tetrahydropyridin-4-yl)-8,14-dioxa-10,19,20-triazatetra cyclo[13.5.2.1^2,6.0^18,21]tricosa-1(20),2,4,6(23),15,17,21-heptaen-9-one]	< 10
O=C1NCCCOc2ccc3[nH]nc(c3c2)-c2cc(cc(N3C[C@@H]4C[C@H]3CO4)c2)CO1 [Example 40]	< 10
O=C1NCCCOc2ccc3[nH]nc(c3c2)-c2cc(cc(CN3CCOCC3)c2)CO1 [Example 41, 4-[(morpholin-4-yl)methyl]-8,14-dioxa-10,19,20-triazatetracyclo[13.5.2.1^2,6.0^18,21]tricosa-1(20),2,4,6(23),15,17,21-heptaen-9-one]	< 10
O=C1NCCCOc2ccc3[nH]nc(c3c2)-c2cc(cc(CN3CCCC3)c2)CO1 [Example 42, 4-[(pyrrolidin-1-yl)methyl]-8,14-dioxa-10,19,20-triazatetracyclo[13.5.2.1^2,6.0^18,21]tricosa-1(20),2,4,6(23),15,17,21-heptaen-9-one]	< 10
O=C1NCCCOc2ccc3[nH]nc(c3c2)-c2cc(cc(CN3CCCCC3)c2)CO1 [Example 43]	10 to 100
CN1CCN(Cc2cc3cc(c2)-c2n[nH]c4ccc(cc24)OCCCNC(=O)OC3)CC1 [Example 44, 4-[(4-methylpiperazin-1-yl)methyl]-8,14-dioxa-10,19,20-triazatetracyclo[13.5.2.1^2,6.0^18,21]tricosa-1(20),2,4,6(23),15,17,21-heptaen-9-one]	< 10
O=C1NCCCOc2ccc3[nH]nc(c3c2)-c2ccc(N3CCOCC3)c(c2)CO1 [Example 45, 5-(morpholin-4-yl)-8,14-dioxa-10,19,20-triazatetracyclo[13.5.2.1^2,6.0^18,21]tricosa-1(20),2,4,6(23),15,17,21-heptaen-9-one]	< 10
COCCN1CCN(c2cc3cc(c2)-c2n[nH]c4ccc(cc24)OCCCNC(=O)OC3)CC1 [Example 46, 4-[4-(2-methoxyethyl)piperazin-1-yl]-8,14-dioxa-10,19,20-triazatetracyclo[13.5.2.1^2,6.0^18,21]tricosa-1(20),2,4,6(23),15,17,21-heptaen-9-one]	< 10
CCN(CC)c1cc2cc(c1)-c1n[nH]c3ccc(cc13)OCCCNC(=O)OC2 [Example 47, 4-(diethylamino)-8,14-dioxa-10,19,20-triazatetracyclo[13.5.2.1^2,6.0^18,21]tricosa-1(20),2,4,6(23),15,17,21-heptaen-9-one]	< 10
